Data on two compounds can be found in ChEMBL document CHEMBL1151006, “Synthesis of bicyclic thiazolidine PAF antagonists” (Bioorg Med Chem Lett, 1993).

The series in a line: Half life in rats after intravenous administration. It is filed as ADME, organism-based. The note with it: rat, in vivo.

Turning to `O=C(c1ccccc1)c1cccc(NC(=O)[C@H]2OC(=O)N3[C@@H](c4cccnc4)SC[C@@H]23)c1`, the half-life (as a rule, the time needed for the level to fall by half in the phase considered) is 42 min.
For the compound `O=C(c1ccccc1)c1cccc(NC(=O)[C@@H]2CSC(c3cccnc3)N2)c1` (some centres not stated), the half-life is 60 min.
